Patent US5059624A, “Guanidine derivatives having hypotensive activity, composition containing them and process for obtaining them” (Consiglio Nazionale Delle Ricerche, priority 1988, dated 1991)
Read-outs that look alike come from different tables or passages of the source.

Test system: male Wistar rats
Settings: for cardiovascular and respiratory effects (in words): i.v.
[1] = doses higher than 50-800 μg/kg i.v., rat

Description: In order to check its activity, diguanido-II was dissolved in a 0.9 % sodium chloride solution and administered through "rapid" i.v. route in male Wistar rats, under general anaesthesia obtained by means of 10% ethyl urethan (i ml/hg).
The active ingredients called guanido-III, -IV, -V, as well as agmatine and galegine, were also tested, after having been administered through "rapid" i.v. route in male Wistar rats (weighing average 280±5 g) under general anaesthesia obtained by means of 10% ethyl uretan (1 ml/hg, i.p.). The general experimental conditions were exactly the same as previously mentioned for guanido-I and diguanido-II, so that the cardiovascular and respiratory effects could be compared.
The parameters measured are as follows: systolic and diastolic systemic arterial pressure (AP), heart rate (HR), maximum rate of increase in the left ventricular isovolumetric pressure (dp/dt), respiratory frequency (RF) and tidal volume (TV). The doses (in μg/kg body weight, referred to the active substance) varied from 50 μg/kg to 6,400 μg/kg (ratio=2.0); in some cases higher does have been employed.

CC(C)=CCNC(=N)NCCCCN [guanido-III, prenylagmatine]
Δ AP DIAST (200 μg/kg i.v.): -2 ± 0.2 mmHg | Δ AP SYST (200 μg/kg i.v.): -2 ± 0.3 mmHg | Δ HR (200 μg/kg i.v.): 0 beats/min | Δ RF (200 μg/kg i.v.): +7 ± 4% | Δ TV (200 μg/kg i.v.): +9 ± 2% | Δ dp/dt (200 μg/kg i.v.): +214 ± 20 mmHg/sec | Δ AP DIAST (400 μg/kg i.v.): -2 ± 0.6 mmHg | Δ AP SYST (400 μg/kg i.v.): -3.5 ± 1.5 mmHg | Δ HR (400 μg/kg i.v.): 0 beats/min | Δ RF (400 μg/kg i.v.): +7 ± 3% | Δ TV (400 μg/kg i.v.): +17 ± 6% | Δ dp/dt (400 μg/kg i.v.): +321 ± 17 mmHg/sec | Δ AP DIAST (800 μg/kg i.v.): -13 ± 4 mmHg | Δ AP SYST (800 μg/kg i.v.): -11 ± 1 mmHg | Δ HR (800 μg/kg i.v.): -15 ± 3 beats/min | Δ RF (800 μg/kg i.v.): +10 ± 4% | Δ TV (800 μg/kg i.v.): +33 ± 9% | Δ dp/dt (800 μg/kg i.v.): +1356 ± 428 mmHg/sec | Δ AP DIAST (1600 μg/kg i.v.): -21 ± 4 mmHg | Δ AP SYST (1600 μg/kg i.v.): -13 ± 2 mmHg | Δ HR (1600 μg/kg i.v.): -23 ± 10 beats/min | Δ RF (1600 μg/kg i.v.): +18 ± 3% | Δ TV (1600 μg/kg i.v.): +21 ± 7% | Δ dp/dt (1600 μg/kg i.v.): +2157 ± 655 mmHg/sec | Δ AP DIAST (3200 μg/kg i.v.): -36 ± 6 mmHg | Δ AP SYST (3200 μg/kg i.v.): -36 ± 7 mmHg | Δ HR (3200 μg/kg i.v.): -26 ± 8 beats/min | Δ RF (3200 μg/kg i.v.): -42 ± 9% | Δ TV (3200 μg/kg i.v.): -73 ± 18% | Δ AP DIAST (6400 μg/kg i.v.): -85 ± 3 mmHg | Δ AP SYST (6400 μg/kg i.v.): -112 ± 3 mmHg | Δ HR (6400 μg/kg i.v.): -310 ± 25 beats/min | Δ RF (6400 μg/kg i.v.): -100% | Δ TV (6400 μg/kg i.v.): -100% | Δ dp/dt (6400 μg/kg i.v.): -5422 ± 514 mmHg/sec | cardiovascular and respiratory effects (in words) (rat): systolic and diastolic arterial hypotension (well evident starting from the dose of 800 μg/kg), bradycardia, increase of dp/dt (up to the dose of 3,200 μg/kg). increase of RF and TV (up to the dose of 1,600 μg/kg) | death of the tested animals (rat, in vivo, iv): caused death of the tested animals

NCCCCN=C(N)N [agmatine, 4-(aminobutyl)guanidine, reference compound]
Δ AP DIAST (200 μg/kg i.v.): -4 ± 1 mmHg | Δ AP SYST (200 μg/kg i.v.): -5 ± 2 mmHg | Δ HR (200 μg/kg i.v.): 0 beats/min | Δ RF (200 μg/kg i.v.): +9 ± 3% | Δ TV (200 μg/kg i.v.): +3 ± 1% | Δ dp/dt (200 μg/kg i.v.): +300 ± 89 mmHg/sec | Δ AP DIAST (400 μg/kg i.v.): -6 ± 2 mmHg | Δ AP SYST (400 μg/kg i.v.): -6 ± 1 mmHg | Δ HR (400 μg/kg i.v.): 0 beats/min | Δ RF (400 μg/kg i.v.): +11 ± 4% | Δ TV (400 μg/kg i.v.): +12 ± 4% | Δ dp/dt (400 μg/kg i.v.): +334 ± 54 mmHg/sec | Δ AP DIAST (800 μg/kg i.v.): -8 ± 2 mmHg | Δ AP SYST (800 μg/kg i.v.): -8 ± 2 mmHg | Δ HR (800 μg/kg i.v.): 0 beats/min | Δ RF (800 μg/kg i.v.): +12 ± 4% | Δ TV (800 μg/kg i.v.): +14 ± 2% | Δ dp/dt (800 μg/kg i.v.): +947 ± 131 mmHg/sec | Δ AP DIAST (1600 μg/kg i.v.): -10 ± 1 mmHg | Δ AP SYST (1600 μg/kg i.v.): -9 ± 3 mmHg | Δ HR (1600 μg/kg i.v.): 0 beats/min | Δ RF (1600 μg/kg i.v.): +11 ± 2% | Δ TV (1600 μg/kg i.v.): +25 ± 5% | Δ dp/dt (1600 μg/kg i.v.): +981 ± 94 mmHg/sec | Δ AP DIAST (3200 μg/kg i.v.): -11 ± 2 mmHg | Δ AP SYST (3200 μg/kg i.v.): -9 ± 2 mmHg | Δ HR (3200 μg/kg i.v.): -7 ± 2 beats/min | Δ RF (3200 μg/kg i.v.): +13 ± 4% | Δ TV (3200 μg/kg i.v.): +27 ± 4% | Δ dp/dt (3200 μg/kg i.v.): +1356 ± 164 mmHg/sec | Δ AP DIAST (6400 μg/kg i.v.): -13 ± 4 mmHg | Δ AP SYST (6400 μg/kg i.v.): -11 ± 4 mmHg | Δ HR (6400 μg/kg i.v.): -13 ± 5 beats/min | Δ RF (6400 μg/kg i.v.): +13 ± 5% | Δ TV (6400 μg/kg i.v.): +30 ± 7% | Δ dp/dt (6400 μg/kg i.v.): +3351 ± 417 mmHg/sec | Δ AP DIAST (12800 μg/kg i.v.): -18 ± 5 mmHg | Δ AP SYST (12800 μg/kg i.v.): -12 ± 2 mmHg | Δ HR (12800 μg/kg i.v.): -17 ± 2 beats/min | Δ RF (12800 μg/kg i.v.): +15 ± 2% | Δ TV (12800 μg/kg i.v.): +31 ± 7% | Δ dp/dt (12800 μg/kg i.v.): +2568 ± 432 mmHg/sec | Δ AP DIAST (25600 μg/kg i.v.): -23 ± 4 mmHg | Δ AP SYST (25600 μg/kg i.v.): -12 ± 3 mmHg | Δ HR (25600 μg/kg i.v.): -17 ± 7 beats/min | Δ RF (25600 μg/kg i.v.): +24 ± 4% | Δ TV (25600 μg/kg i.v.): +33 ± 9% | Δ dp/dt (25600 μg/kg i.v.): +3565 ± 813 mmHg/sec | Δ AP DIAST (51200 μg/kg i.v.): -34 ± 6 mmHg | Δ AP SYST (51200 μg/kg i.v.): -15 ± 1 mmHg | Δ HR (51200 μg/kg i.v.): -22 ± 1 beats/min | Δ RF (51200 μg/kg i.v.): +31 ± 7% | Δ TV (51200 μg/kg i.v.): +35 ± 6% | Δ dp/dt (51200 μg/kg i.v.): +5491 ± 869 mmHg/sec | cardiovascular and respiratory effects (in words) (rat): analogous to those induced by guanido-V., moreover, said active ingredient caused a constant increase in dp/dt, RF and TV

CC(C)=CCN=C(N)N [galegine, prenylguanidine, reference compound]
Δ AP DIAST (50 μg/kg i.v.): -19 ± 3 mmHg | Δ AP SYST (50 μg/kg i.v.): -18 ± 1 mmHg | Δ HR (50 μg/kg i.v.): -32 ± 6 beats/min | Δ RF (50 μg/kg i.v.): +38 ± 4% | Δ TV (50 μg/kg i.v.): +43 ± 4% | Δ dp/dt (50 μg/kg i.v.): +1498 ± 131 mmHg/sec | Δ AP DIAST (100 μg/kg i.v.): -28 ± 6 mmHg | Δ AP SYST (100 μg/kg i.v.): -22 ± 2 mmHg | Δ HR (100 μg/kg i.v.): -46 ± 7 beats/min | Δ RF (100 μg/kg i.v.): +68 ± 4% | Δ TV (100 μg/kg i.v.): +63 ± 5% | Δ dp/dt (100 μg/kg i.v.): +1712 ± 90 mmHg/sec | Δ AP DIAST (200 μg/kg i.v.): -29 ± 5 mmHg | Δ AP SYST (200 μg/kg i.v.): -23 ± 5 mmHg | Δ HR (200 μg/kg i.v.): -94 ± 6 beats/min | Δ RF (200 μg/kg i.v.): +69 ± 7% | Δ TV (200 μg/kg i.v.): +64 ± 7% | Δ dp/dt (200 μg/kg i.v.): +1797 ± 178 mmHg/sec | Δ AP DIAST (400 μg/kg i.v.): -26 ± 4 mmHg | Δ AP SYST (400 μg/kg i.v.): -25 ± 6 mmHg | Δ HR (400 μg/kg i.v.): -107 ± 4 beats/min | Δ RF (400 μg/kg i.v.): +76 ± 9% | Δ TV (400 μg/kg i.v.): +87 ± 9% | Δ dp/dt (400 μg/kg i.v.): +2568 ± 314 mmHg/sec | Δ AP DIAST (800 μg/kg i.v.): -26 ± 4 mmHg | Δ AP SYST (800 μg/kg i.v.): -27 ± 4 mmHg | Δ HR (800 μg/kg i.v.): -106 ± 11 beats/min | Δ RF (800 μg/kg i.v.): +70 ± 8% | Δ TV (800 μg/kg i.v.): +31 ± 3% | Δ dp/dt (800 μg/kg i.v.): +1926 ± 223 mmHg/sec | Δ AP DIAST (1600 μg/kg i.v.): -25 ± 4 mmHg | Δ AP SYST (1600 μg/kg i.v.): -22 ± 4 mmHg | Δ HR (1600 μg/kg i.v.): -85 ± 5 beats/min | Δ RF (1600 μg/kg i.v.): +133 ± 14% | Δ TV (1600 μg/kg i.v.): +55 ± 6% | Δ dp/dt (1600 μg/kg i.v.): +1724 ± 104 mmHg/sec | Δ AP DIAST (3200 μg/kg i.v.): -36 ± 4 mmHg | Δ AP SYST (3200 μg/kg i.v.): -22 ± 3 mmHg | Δ HR (3200 μg/kg i.v.): -98 ± 16 beats/min | Δ RF (3200 μg/kg i.v.): +85 ± 6% | Δ TV (3200 μg/kg i.v.): +40 ± 7% | Δ dp/dt (3200 μg/kg i.v.): +2996 ± 202 mmHg/sec | Δ AP DIAST (6400 μg/kg i.v.): -36 ± 2 mmHg | Δ AP SYST (6400 μg/kg i.v.): -18 ± 4 mmHg | Δ HR (6400 μg/kg i.v.): -42 ± 4 beats/min | Δ RF (6400 μg/kg i.v.): +37 ± 11% | Δ TV (6400 μg/kg i.v.): +29 ± 8% | Δ dp/dt (6400 μg/kg i.v.): +4494 ± 371 mmHg/sec | Δ AP DIAST (12800 μg/kg i.v.): -42 ± 3 mmHg | Δ AP SYST (12800 μg/kg i.v.): -22 ± 2.5 mmHg | Δ HR (12800 μg/kg i.v.): -15 ± 7 beats/min | Δ RF (12800 μg/kg i.v.): +23 ± 7% | Δ TV (12800 μg/kg i.v.): +25 ± 5% | Δ dp/dt (12800 μg/kg i.v.): +6420 ± 417 mmHg/sec | Δ AP DIAST (25600 μg/kg i.v.): -30 ± 9 mmHg | Δ AP SYST (25600 μg/kg i.v.): -19 ± 3 mmHg | Δ HR (25600 μg/kg i.v.): -21 ± 6 beats/min | Δ RF (25600 μg/kg i.v.): -34 ± 12% | Δ TV (25600 μg/kg i.v.): -57 ± 8% | Δ dp/dt (25600 μg/kg i.v.): +6471 ± 274 mmHg/sec | Δ AP DIAST (51200 μg/kg i.v.): -50 ± 7 mmHg | Δ AP SYST (51200 μg/kg i.v.): -80 ± 8 mmHg | Δ HR (51200 μg/kg i.v.): -298 ± 19 beats/min | Δ RF (51200 μg/kg i.v.): -100% | Δ TV (51200 μg/kg i.v.): -100% | Δ dp/dt (51200 μg/kg i.v.): -4708 ± 312 mmHg/sec | death of the tested animals at extremely high doses (25,600 and 51,200 ug/kg i.v., rat): primary respiratory depression (reduction of RF and TV) and a subsequent arterial hypotension. bradycardia and decrease in the cardiac inotropism (dp/dt), with death of the tested animals

N=C(N)N [guanidine]
alterations of RF, TV and HR (in words) (50-800 μg/kg i.v., rat): did not cause in the rats under test significative alterations of RF, TV and HR | dp/dt (in words) (50-800 μg/kg i.v., rat): a little reduction of dp/dt | hypotensive responses (in words) (50-800 μg/kg i.v., rat): slight and not significant hypotensive responses | the other parameters (in words) (6,400-1,2600 μg/kg i.v., rat): slight changes | RF and TV (in words) [1]: reduction of RF and TV | cardiac inotropism (dp/dt) (in words) [1]: a little increase in cardiac inotropism (dp/dt) | systemic arterial pressure (in words) [1]: biphasic responses of a slight entity (hypo-hypertension)
